# “Also recorded” adds a separate entry of the source. Where two headings read alike, the source gives them in different places. Where a SMILES comes first, the peptide text is derived from it.
# Experiments:
# α7 nAChRs [1] = biological target: T1, α7 nAChRs (Rattus norvegicus, UniProt Q05941); type: cell-based
# α4β2 nAChRs = α4β2 nAChRs (Rattus norvegicus, UniProt P09483+P12390); type: cell-based
# α2β2 nAChRs = α2β2 nAChRs (Rattus norvegicus, UniProt P12389+P12390); type: cell-based
# [2] = biological target: native α7-containing nAChRs (rat CA1 stratum radiatum interneurons) (Rattus norvegicus, UniProt Q05941); type: cell-based
# Sequence of native α7-containing nAChRs (rat CA1 stratum radiatum interneurons) (Q05941 23-502): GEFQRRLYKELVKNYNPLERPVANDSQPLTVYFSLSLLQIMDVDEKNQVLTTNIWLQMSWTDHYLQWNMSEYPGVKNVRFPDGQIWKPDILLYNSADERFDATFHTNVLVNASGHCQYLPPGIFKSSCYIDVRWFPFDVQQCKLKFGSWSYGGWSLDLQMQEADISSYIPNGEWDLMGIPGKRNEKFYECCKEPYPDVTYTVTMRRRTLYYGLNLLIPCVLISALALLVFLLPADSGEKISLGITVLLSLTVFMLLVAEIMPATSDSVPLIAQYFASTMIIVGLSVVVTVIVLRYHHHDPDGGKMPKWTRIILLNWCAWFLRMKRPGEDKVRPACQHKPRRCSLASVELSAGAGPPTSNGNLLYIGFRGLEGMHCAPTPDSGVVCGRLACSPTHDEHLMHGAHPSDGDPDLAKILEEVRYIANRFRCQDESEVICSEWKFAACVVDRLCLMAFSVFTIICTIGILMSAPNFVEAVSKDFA
# [3] = biological target: homomeric α7 nicotinic acetylcholine receptor expressed in X. laevis oocytes (UniProt Q05941)
# Sequence of homomeric α7 nicotinic acetylcholine receptor expressed in X. laevis oocytes (Q05941 23-502): as above
# α7 nAChRs [4] = biological target: T1, α7 nAChRs; details: native and expressed receptors, cited from earlier work
# [5] = heteromeric nAChRs, X. laevis oocytes
# Sequence of α2β2 nAChRs (P12389 28-511): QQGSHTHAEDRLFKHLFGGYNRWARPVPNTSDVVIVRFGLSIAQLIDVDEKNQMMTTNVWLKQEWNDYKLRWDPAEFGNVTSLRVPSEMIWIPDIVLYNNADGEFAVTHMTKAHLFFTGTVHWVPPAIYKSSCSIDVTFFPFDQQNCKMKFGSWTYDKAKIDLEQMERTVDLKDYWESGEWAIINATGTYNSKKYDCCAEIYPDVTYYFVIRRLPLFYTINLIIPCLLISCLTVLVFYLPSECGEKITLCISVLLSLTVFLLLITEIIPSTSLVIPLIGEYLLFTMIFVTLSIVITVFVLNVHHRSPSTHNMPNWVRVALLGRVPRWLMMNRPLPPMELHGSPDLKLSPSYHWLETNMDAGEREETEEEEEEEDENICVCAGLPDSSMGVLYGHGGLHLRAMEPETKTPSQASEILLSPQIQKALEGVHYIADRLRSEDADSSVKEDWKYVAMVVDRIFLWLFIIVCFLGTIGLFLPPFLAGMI
# Sequence of α2β2 nAChRs (P12390 25-500): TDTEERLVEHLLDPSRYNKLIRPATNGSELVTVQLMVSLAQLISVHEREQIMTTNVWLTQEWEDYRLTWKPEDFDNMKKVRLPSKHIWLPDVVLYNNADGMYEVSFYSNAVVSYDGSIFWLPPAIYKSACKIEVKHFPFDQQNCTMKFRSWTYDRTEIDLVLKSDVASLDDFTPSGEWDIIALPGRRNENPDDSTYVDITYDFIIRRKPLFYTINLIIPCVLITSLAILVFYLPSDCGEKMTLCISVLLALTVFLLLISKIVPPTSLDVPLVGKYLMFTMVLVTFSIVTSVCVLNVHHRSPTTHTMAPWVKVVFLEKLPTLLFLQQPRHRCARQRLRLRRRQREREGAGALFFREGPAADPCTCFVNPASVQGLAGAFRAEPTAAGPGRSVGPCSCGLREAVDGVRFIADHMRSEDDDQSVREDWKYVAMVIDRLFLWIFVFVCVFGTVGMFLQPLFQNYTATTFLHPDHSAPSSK
# Sequence of α4β2 nAChRs (P09483 31-630): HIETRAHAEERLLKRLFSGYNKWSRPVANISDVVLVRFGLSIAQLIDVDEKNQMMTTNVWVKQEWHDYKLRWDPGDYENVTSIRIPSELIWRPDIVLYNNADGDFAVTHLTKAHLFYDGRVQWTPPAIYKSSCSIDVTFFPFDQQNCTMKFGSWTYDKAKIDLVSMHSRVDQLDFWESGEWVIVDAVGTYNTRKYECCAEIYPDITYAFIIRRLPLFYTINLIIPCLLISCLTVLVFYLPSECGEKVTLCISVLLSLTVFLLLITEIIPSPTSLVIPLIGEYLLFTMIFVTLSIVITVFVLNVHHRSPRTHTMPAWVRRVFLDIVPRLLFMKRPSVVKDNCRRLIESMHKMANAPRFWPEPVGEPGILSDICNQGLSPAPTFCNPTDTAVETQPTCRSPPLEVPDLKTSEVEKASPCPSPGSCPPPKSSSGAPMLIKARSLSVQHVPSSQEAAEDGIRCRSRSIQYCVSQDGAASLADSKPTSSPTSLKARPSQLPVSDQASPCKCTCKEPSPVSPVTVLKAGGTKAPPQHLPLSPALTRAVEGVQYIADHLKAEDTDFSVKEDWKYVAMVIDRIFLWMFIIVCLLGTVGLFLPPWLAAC
# Sequence of α4β2 nAChRs (P12390 25-500): as the sequence (P12390 25-500) above
# T1 sequence (Q05941 23-502): as the sequence (Q05941 23-502) above
molecule,measurement,setting,value
CC(=O)N[C@@H](CCCCN)C(=O)N[C@@H](CCCCN)C(=O)N[C@@H](CCCCN)C(=O)N[C@@H](CCCCN)C(=O)N[C@@H](CCCCN)C(=O)N[C@@H](CCCNC(=N)N)C(=O)N[C@@H](Cc1ccccc1)C(=O)N[C@@H](CO)C(=O)N[C@@H](Cc1ccccc1)C(=O)N[C@@H](CCCCN)C(=O)N[C@@H](CCCCN)C(=O)N[C@@H](CO)C(=O)N[C@@H](Cc1ccccc1)C(=O)N[C@@H](CCCCN)C(=O)N[C@@H](CC(C)C)C(=O)N[C@@H](CO)C(=O)NCC(=O)N[C@@H](Cc1ccccc1)C(=O)N[C@@H](CO)C(=O)N[C@@H](Cc1ccccc1)C(=O)N[C@@H](CCCCN)C(=O)N[C@@H](CCCCN)C(=O)N[C@@H](CC(N)=O)C(=O)N[C@@H](CCCCN)C(=O)N[C@@H](CCCCN)C(N)=O [MARCKS ED peptide] (Ac-KKKKKRFSFKKSFKLSGFSFKKNKK-NH2),inhibition not because of open channel block,"α7 nAChRs [1]; 1 µM peptide, +30 vs -60 mV",86%
same,voltage-dependent part of the inhibition,"α7 nAChRs [1]; 1 µM peptide, +30 vs -60 mV",14%
same,onset of inhibition,"α7 nAChRs [1]; 1 µM, X. laevis oocytes",rapid
same,voltage dependence of inhibition,α7 nAChRs [1]; +30 and -60 mV,activity- and voltage-independent; also recorded: voltage- and activity-independent
same,inhibition of ACh-evoked α7 nAChR responses (in words),α7 nAChRs [1]; X. laevis oocytes,completely inhibited
same,washout / recovery from inhibition,α7 nAChRs [1]; X. laevis oocytes,slow and slow recovery during washout and slow to recover with washout
same,activity (use) dependence of inhibition,"α7 nAChRs [1]; peptide bath applied 10 min without ACh stimulation, then ACh",activity- and voltage-independent; also recorded: there was not a use-dependent component of the peptide block; also recorded: voltage- and activity-independent
same,inhibition at 1 µM,α7 nAChRs [1]; read-out: activity-independent inhibition of α7 nAChRs,98 ± 2%
same,inhibition at 1 µM,α7 nAChRs [1]; read-out: inhibition of ACh-induced α7 nAChR peak current responses,99 ± 0.2%
same,inhibition at 0.1 µM,α7 nAChRs [1]; read-out: inhibition of α7 ACh responses at 100 nM,90 ± 2%
same,inhibition at 1 µM,α7 nAChRs [1]; read-out: inhibition still present after washout,82 ± 3%
same,potency at α4β2 compared with α7 nAChRs,α4β2 nAChRs; IC50 comparison by F test,decreased potency; also recorded: less potent inhibition
same,dissociation from α4β2 nAChRs relative to α7,α4β2 nAChRs; [5],appears to dissociate more rapidly from heteromeric nAChRs
same,potency at α2β2 compared with α7 nAChRs,α2β2 nAChRs; IC50 comparison by F test,decreased potency; also recorded: less potent inhibition
same,dissociation from α2β2 nAChRs relative to α7,α2β2 nAChRs; [5],appears to dissociate more rapidly from heteromeric nAChRs
same,block of native α7 nAChRs in hippocampal interneurons (in words),[2]; acute rat hippocampal slices,able to block native α7 nAChRs in a dose-dependent manner
same,effect on baseline current in hippocampal interneurons,[2]; bath application,no effect
same,"onset of inhibition, hippocampal slices",[2]; bath application,slow
same,inhibition at 1 µM,"[2]; read-out: inhibition of ACh-evoked responses in hippocampal interneurons, 1 µM",59 ± 13%
same,inhibition at 3 µM,"[2]; read-out: inhibition of ACh-evoked responses in hippocampal interneurons, 3 µM",92 ± 2%
same,inhibition at 10 µM,"[2]; read-out: inhibition of ACh-evoked responses in hippocampal interneurons, 10 µM",100%
same,"recovery of responses after washout, hippocampal slices","[2]; within 20 min of washout, two to three interneurons",do not recover after MARCKS ED peptide inhibition
KKKKKRFDFKKDFKLDGFDFKKNK [MARCKS S/D],inhibition of ACh-evoked α7 nAChR responses (in words),α7 nAChRs [1]; X. laevis oocytes,unable to inhibit ACh-mediated α7 nAChR responses; also recorded: lack of inhibition of nAChR responses
"MARCKS154–165: truncated form of the MARCKS ED peptide, purchased from AnaSpec (KKKRFSFKKSFK; UniProt P29966 154-165, looked up, fragment)",inhibition of ACh-evoked α7 nAChR responses (in words),α7 nAChRs [1]; X. laevis oocytes,unable to significantly inhibit α7 nAChRs
"MARCKS159–165: truncated form of the MARCKS ED peptide, purchased from AnaSpec (SFKKSFK; UniProt P29966 159-165, looked up, fragment)",inhibition of ACh-evoked α7 nAChR responses (in words),α7 nAChRs [1]; X. laevis oocytes,unable to significantly inhibit α7 nAChRs
MARCKS_(154–165) peptide,"percentage block of ACh-evoked α7 nAChR current in oocytes, peptide 1 µM",[3],12%
MARCKS_(159–165) peptide,"percentage block of ACh-evoked α7 nAChR current in oocytes, peptide 1 µM",[3],5%
β-Amyloid1–42: brain-derived peptide β-amyloid1–42,effect on α7 nAChRs,"α7 nAChRs [4]; ref Dineley et al., 2002, Dougherty et al., 2003",agonism
same,effect on α7 nAChRs,"α7 nAChRs [4]; ref Liu et al., 2001, Grassi et al., 2003",almost complete antagonism
same,effect on α7 nAChRs,"α7 nAChRs [4]; ref Pettit et al., 2001, Lamb et al., 2005",minimal to no antagonism
